Data on 49 compounds can be found in patent US11292791B2 (priority 2017, dated 2022).

This test concerns the target BRD4 (Homo sapiens (Human), UniProt O60885). To be noted: read-out: BRD4 IC50 (μM gmean).
With `COC(=O)N1c2ccc3c(nc(Cc4cccc(F)c4)n3C3CCNCC3)c2CC[C@@H]1C` [Example 102], the IC50 lay within 1 to 1000 µM.
To `COC(=O)N1c2ccc3c(nc(Cc4ccc(OC)c(F)c4)n3C3CCNCC3)c2CC[C@@H]1C` [Example 103] belongs 1 to 1000 µM.
To `COC(=O)N1c2ccc3c(nc(CCc4ccccc4)n3C3CCNCC3)c2CC[C@@H]1C` [Example 104] belongs 1 to 1000 µM.
To `COC(=O)N1c2ccc3c(nc(Cc4ccc(OC)cc4)n3C3CCNCC3)c2CC[C@@H]1C` [Example 107] belongs 1 to 1000 µM; to `COC(=O)N1c2ccc3c(nc(Cc4ccc(OC)cc4)n3C3CCC4(CC3)CNC4)c2CC[C@@H]1C` [Example 108], 1 to 1000 µM.
Turning to `COC(=O)N1c2ccc3c(nc(CCn4cccn4)n3C3CCC4(CC3)CNC4)c2CC[C@@H]1C` [Example 109], the IC50 is 1 to 1000 µM.
In the case of `COC(=O)N1c2ccc3c(nc(Cc4cccc(OC)c4)n3C3CC4(CNC4)C3)c2CC[C@@H]1C` [Example 110], the IC50 lay within 1 to 1000 µM.
To `COC(=O)N1c2ccc3c(nc(Cc4ccccc4)n3[C@H]3CCC34CCNCC4)c2CC[C@@H]1C` [Example 111, methyl (S)-2-benzyl-7-methyl-3-((S)-7-azaspiro[3.5]nonan-1-yl)-3,7,8,9-tetrahydro-6H-imidazo[4,5-f]quinoline-6-carboxylate] belongs 1 to 1000 µM; to `COC(=O)N1c2ccc3c(nc(Cc4ccccc4)n3[C@@H]3CCC34CCNCC4)c2CC[C@@H]1C` [Example 112, methyl (S)-2-benzyl-7-methyl-3-((R)-7-azaspiro[3.5]nonan-1-yl)-3,7,8,9-tetrahydro-6H-imidazo[4,5-f]quinoline-6-carboxylate], 1 to 1000 µM; to `COC(=O)N1c2ccc3c(nc(C[C@@H](C(=O)O)c4ccccc4)n3C)c2CC[C@@H]1C` [Example 133, (2R)-3-[(7S)-6-(methoxycarbonyl)-3,7-dimethyl-3H,6H,7H,8H,9H-imidazo[4,5-f]quinolin-2-yl]-2-phenylpropanoic Acid], 1 to 1000 µM.
As for `COC(=O)N1c2ccc3c(nc(C[C@H](C(=O)O)c4ccccc4)n3C)c2CC[C@@H]1C` [Example 134, (2S)-3-[(7S)-6-(methoxycarbonyl)-3,7-dimethyl-3H,6H,7H,8H,9H-imidazo[4,5-f]quinolin-2-yl]-2-phenylpropanoic Acid], the half-maximal inhibitory concentration (IC50) was in the range of 1 to 1000 µM.
On to `COC(=O)N1c2ccc3c(nc(C[C@H](C(=O)O)c4ccccc4)n3C)c2CC[C@@H]1C` [Example 135, (S)-3-((S)-6-(methoxycarbonyl)-3,7-dimethyl-6,7,8,9-tetrahydro-3H-imidazo[4,5-f]quinolin-2-yl)-2-phenylpropanoic Acid], for which the IC50 fell in the range of 1 to 1000 µM.
Turning to `COC(=O)N1c2ccc3c(nc(C[C@@H](C(=O)O)c4ccccc4)n3C)c2CC[C@@H]1C` [Example 136, (R)-3-((S)-6-(methoxycarbonyl)-3,7-dimethyl-6,7,8,9-tetrahydro-3H-imidazo[4,5-f]quinolin-2-yl)-2-phenylpropanoic Acid], the IC50 lay in the range of 1 to 1000 µM.
To `COC(=O)N1c2ccc3c(nc(C[C@@H](C(=O)O)c4ccccc4)n3CCN(C)C)c2CC[C@@H]1C` [Example 137, (R)-3-((S)-3-(2-(dimethylamino)ethyl)-6-(methoxycarbonyl)-7-methyl-6,7,8,9-tetrahydro-3H-imidazo[4,5-f]quinolin-2-yl)-2-phenylpropanoic Acid] belongs 1 to 1000 µM; to `COC(=O)N1c2ccc3c(nc(C[C@H](C(=O)O)c4ccccc4)n3CCN(C)C)c2CC[C@@H]1C` [Example 138, (S)-3-((S)-3-(2-(dimethylamino)ethyl)-6-(methoxycarbonyl)-7-methyl-6,7,8,9-tetrahydro-3H-imidazo[4,5-f]quinolin-2-yl)-2-phenylpropanoic Acid], 1 to 1000 µM; to `COC(=O)N1c2ccc3c(nc(CCn4cccn4)n3CCN3CCOCC3)c2CC[C@@H]1C` [Example 226], 1 to 1000 µM.
To `COC(=O)N1c2ccc3c(nc(CCn4cccn4)n3CCN3CCN(C)CC3)c2CC[C@@H]1C` [Example 227] belongs 1 to 1000 µM; to `COC(=O)N1c2ccc3c(nc(CCn4cccn4)n3CCN3CC4(COC4)C3)c2CC[C@@H]1C` [Example 228], 1 to 1000 µM.
Regarding `COC(=O)N1c2ccc3c(nc(CCn4ccccc4=O)n3CCN3CCNCC3)c2CC[C@@H]1C` [Example 229], the IC50 lay in the range of 1 to 1000 µM.
To `COC(=O)N1c2ccc3c(nc(CCn4ccccc4=O)n3CCN3CCN(C)CC3)c2CC[C@@H]1C` [Example 230] belongs 1 to 1000 µM; to `COC(=O)N1c2ccc3c(nc(CCc4ccccc4)n3CCN(C)C)c2CC[C@@H]1C` [Example 242, methyl-(7S)-3-[2-(dimethylamino)ethyl]-7-methyl-2-(2-phenylethyl)-3H,6H,7H,8H,9H-imidazo[4,5-f]quinoline-6-carboxylate], 1 to 1000 µM.
To `COC(=O)N1c2ccc3c(nc(CCc4ccccc4)n3CCN3CCOCC3)c2CC[C@@H]1C` [Example 245] belongs 1 to 1000 µM; to `COC(=O)N1c2ccc3c(nc(C)n3CCN3CCOCC3)c2CC[C@@H]1C` [Example 248], 1 to 1000 µM; to `COC(=O)N1c2ccc3c(nc(C(C)(C)C)n3CCN3CCOCC3)c2CC[C@@H]1C` [Example 249], 1 to 1000 µM.
Consider `COC(=O)N1c2ccc3c(nc(-c4ccccc4)n3CCN3CCOCC3)c2CC[C@@H]1C` [Example 250], for which the IC50 fell in the range of 1 to 1000 µM.
On to `COC(=O)N1c2ccc3c(nc(CCC4CC4)n3CCN3CCOCC3)c2CC[C@@H]1C` [Example 251], for which the IC50 was in the range of 1 to 1000 µM.
To `COC(=O)N1c2ccc3c(nc(Cc4ccccc4)n3CC3CCS(=O)(=O)CC3)c2CC[C@@H]1C` [Example 253] belongs 1 to 1000 µM; to `COC(=O)N1c2ccc3c(nc(Cc4ccccc4)n3C3CCS(=O)(=O)CC3)c2CC[C@@H]1C` [Example 254], 1 to 1000 µM; to `COC(=O)N1c2ccc3c(nc(Cc4ccccc4)n3[C@H]3CC[C@H](C#N)CC3)c2CC[C@@H]1C` [Example 255], 1 to 1000 µM.
To `COC(=O)N1c2ccc3c(nc(Cc4ccccc4)n3[C@H]3CC[C@@H](C#N)CC3)c2CC[C@@H]1C` [Example 256] belongs 1 to 1000 µM; to `COC(=O)N1c2ccc3c(nc(Cc4ccccc4)n3C3CCN(C)CC3)c2CC[C@@H]1C` [Example 257], 1 to 1000 µM.
To `COC(=O)N1c2ccc3c(nc(Cn4ccccc4=O)n3C3CCOCC3)c2CC[C@@H]1C` [Example 259] belongs 1 to 1000 µM; to `COC(=O)N1c2ccc3c(nc(Cn4ccccc4=O)n3[C@H]3CCCOC3)c2CC[C@@H]1C` [Example 260], 1 to 1000 µM; to `COC(=O)N1c2ccc3c(nc(CCn4ccccc4=O)n3CCCS(C)(=O)=O)c2CC[C@@H]1C` [Example 261], 1 to 1000 µM.
In the case of `COC(=O)N1c2ccc3c(nc(CCn4cccn4)n3C3CCS(=O)(=O)CC3)c2CC[C@@H]1C` [Example 262], the concentration for half-maximal inhibition (IC50) lay within 1 to 1000 µM.
To `COC(=O)N1c2ccc3c(nc(Cc4ccccc4)n3C3CCCCC3)c2CC[C@@H]1C` [Example 263] belongs 1 to 1000 µM.
Regarding `COC(=O)N1c2ccc3c(nc(Cc4ccccc4)n3[C@H]3CCCS(=O)(=O)C3)c2CC[C@@H]1C` [Example 264, methyl (S)-2-benzyl-3-((S)-1,1-dioxidotetrahydro-2H-thiopyran-3-yl)-7-methyl-3,7,8,9-tetrahydro-6H-imidazo[4,5-f]quinoline-6-carboxylate], the IC50 lay within 1 to 1000 µM.
To `COC(=O)N1c2ccc3c(nc(Cc4ccccc4)n3[C@@H]3CCCS(=O)(=O)C3)c2CC[C@@H]1C` [Example 265, methyl (S)-2-benzyl-3-((R)-1,1-dioxidotetrahydro-2H-thiopyran-3-yl)-7-methyl-3,7,8,9-tetrahydro-6H-imidazo[4,5-f]quinoline-6-carboxylate] belongs 1 to 1000 µM; to `COC(=O)N1c2ccc3c(nc(CCn4cccn4)n3CCCS(C)(=O)=O)c2CC[C@@H]1C` [Example 270], 1 to 1000 µM; to `COC(=O)N1c2ccc3c(nc(CCn4cccn4)n3CCS(C)(=O)=O)c2CC[C@@H]1C` [Example 271], 1 to 1000 µM.
On to `COC(=O)N1c2ccc3c(nc(CCn4ccccc4=O)n3CCN3CCOCC3)c2CC[C@@H]1C` [Example 272], for which the IC50 lay within 1 to 1000 µM.
To `COC(=O)N1c2ccc3c(nc(CCn4ccccc4=O)n3CCS(C)(=O)=O)c2CC[C@@H]1C` [Example 273] belongs 1 to 1000 µM; to `COC(=O)N1c2ccc3c(nc(CCn4nccn4)n3C3CCS(=O)(=O)CC3)c2CC[C@@H]1C` [Example 275], 1 to 1000 µM; to `COC(=O)N1c2ccc3c(nc(Cc4ccccc4)n3C3CCN(c4nnn[nH]4)CC3)c2CC[C@@H]1C` [Example 278], 1 to 1000 µM.
To `COC(=O)N1c2ccc3c(nc(Cc4ccccc4)n3[C@@H]3CCC[C@H](c4nnn[nH]4)C3)c2CC[C@@H]1C` [Example 279, methyl (S)-3-((1R,3S)-3-(1H-tetrazol-5-yl)cyclohexyl)-2-benzyl-7-methyl-3,7,8,9-tetrahydro-6H-imidazo[4,5-f]quinoline-6-carboxylate] belongs 1 to 1000 µM.
On to `COC(=O)N1c2ccc3c(nc(Cc4ccccc4)n3[C@H]3CCC[C@@H](c4nnn[nH]4)C3)c2CC[C@@H]1C` [Example 280, methyl (S)-3-((1S,3R)-3-(1H-tetrazol-5-yl)cyclohexyl)-2-benzyl-7-methyl-3,7,8,9-tetrahydro-6H-imidazo[4,5-f]quinoline-6-carboxylate], for which the IC50 lay within 1 to 1000 µM.
To `COC(=O)N1c2ccc3c(nc(Cc4ccccc4)n3[C@@H]3CCC[C@@H](c4nnn[nH]4)C3)c2CC[C@@H]1C` [Example 281, methyl (S)-3-((1R,3R)-3-(1H-tetrazol-5-yl)cyclohexyl)-2-benzyl-7-methyl-3,7,8,9-tetrahydro-6H-imidazo[4,5-f]quinoline-6-carboxylate] belongs 1 to 1000 µM; to `COC(=O)N1c2ccc3c(nc(Cc4ccccc4)n3[C@H]3CCC[C@H](c4nnn[nH]4)C3)c2CC[C@@H]1C` [Example 282, methyl (S)-3-((1S,3S)-3-(1H-tetrazol-5-yl)cyclohexyl)-2-benzyl-7-methyl-3,7,8,9-tetrahydro-6H-imidazo[4,5-f]quinoline-6-carboxylate], 1 to 1000 µM; to `COC(=O)N1c2ccc3c(nc(Cc4ccccc4)n3[C@H]3CC[C@H](c4nnn[nH]4)CC3)c2CC[C@@H]1C` [Example 283], 1 to 1000 µM.
